# In ChEMBL document CHEMBL1201862, “PubChem BioAssay data set” (2004):
# Activity calls are given as the source filed them.
# What was measured:
# [1] = A Cell Based Secondary Assay To Explore Cytotoxicity of Compounds that Sensitize Mycobacterium Tuberculosis to Beta-Lactam Antibiotics.; type: functional
# [2] = target: T1, Eukaryotic translation initiation factor 4H (Homo sapiens, UniProt Q15056); test: eIF4H inhibition in translation initiation, SAR follow-up (AID 435011); type: functional
# [3] = target: T2, Polyadenylate-binding protein 1 (Homo sapiens, UniProt P11940); test: PABP inhibition in translation initiation, SAR follow-up (AID 435018); type: functional
# T2 sequence (P11940 whole entry): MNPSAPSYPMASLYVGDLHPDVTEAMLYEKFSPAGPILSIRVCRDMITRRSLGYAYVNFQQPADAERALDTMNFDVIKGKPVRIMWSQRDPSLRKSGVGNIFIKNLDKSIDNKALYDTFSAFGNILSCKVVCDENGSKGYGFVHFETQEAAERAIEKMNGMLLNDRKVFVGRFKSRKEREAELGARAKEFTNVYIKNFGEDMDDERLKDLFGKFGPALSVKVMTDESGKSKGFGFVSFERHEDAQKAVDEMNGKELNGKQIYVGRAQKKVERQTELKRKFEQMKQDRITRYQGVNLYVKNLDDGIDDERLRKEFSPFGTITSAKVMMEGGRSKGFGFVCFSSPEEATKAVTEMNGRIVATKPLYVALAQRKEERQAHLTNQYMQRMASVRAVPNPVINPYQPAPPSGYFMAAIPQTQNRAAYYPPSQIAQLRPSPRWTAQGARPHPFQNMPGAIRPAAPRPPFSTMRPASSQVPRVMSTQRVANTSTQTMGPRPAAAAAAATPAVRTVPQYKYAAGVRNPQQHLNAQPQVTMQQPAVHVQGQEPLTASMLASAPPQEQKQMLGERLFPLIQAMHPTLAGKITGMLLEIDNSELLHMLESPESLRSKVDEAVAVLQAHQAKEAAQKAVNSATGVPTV
# Hexokinase HKDC1 = target: T3, Hexokinase HKDC1 (Homo sapiens, UniProt Q2TB90); test: HKDC1 hexokinase inhibitors, dose response, biochemical, W721R variant (AID 504729); type: functional
# T3 sequence (Q2TB90 whole entry): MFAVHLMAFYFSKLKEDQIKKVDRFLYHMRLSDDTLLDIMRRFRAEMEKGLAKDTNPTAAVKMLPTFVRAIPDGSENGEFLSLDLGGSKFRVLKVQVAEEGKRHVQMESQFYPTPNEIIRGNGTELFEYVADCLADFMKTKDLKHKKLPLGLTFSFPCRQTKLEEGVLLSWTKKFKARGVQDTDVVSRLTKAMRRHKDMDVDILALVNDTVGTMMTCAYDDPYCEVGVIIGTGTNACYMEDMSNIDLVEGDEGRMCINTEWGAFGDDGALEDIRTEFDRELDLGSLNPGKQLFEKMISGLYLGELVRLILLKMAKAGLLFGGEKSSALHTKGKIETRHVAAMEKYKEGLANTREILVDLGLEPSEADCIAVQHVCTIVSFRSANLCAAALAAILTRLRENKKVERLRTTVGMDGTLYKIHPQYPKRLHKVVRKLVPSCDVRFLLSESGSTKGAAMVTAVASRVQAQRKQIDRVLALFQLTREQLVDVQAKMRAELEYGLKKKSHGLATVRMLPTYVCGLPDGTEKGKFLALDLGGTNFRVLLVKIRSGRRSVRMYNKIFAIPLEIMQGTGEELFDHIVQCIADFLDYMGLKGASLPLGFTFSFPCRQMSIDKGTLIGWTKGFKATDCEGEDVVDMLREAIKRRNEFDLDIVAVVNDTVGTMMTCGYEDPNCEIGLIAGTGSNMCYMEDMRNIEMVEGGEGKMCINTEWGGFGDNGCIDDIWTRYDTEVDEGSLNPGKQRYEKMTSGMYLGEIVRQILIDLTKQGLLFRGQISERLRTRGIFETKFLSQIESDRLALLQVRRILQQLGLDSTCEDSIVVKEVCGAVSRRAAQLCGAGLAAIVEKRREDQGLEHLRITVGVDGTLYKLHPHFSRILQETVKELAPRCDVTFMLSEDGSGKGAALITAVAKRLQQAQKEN
# [4] = target: T4, Voltage-gated N-type calcium channel alpha-1B subunit/Amyloid beta A4 precursor protein-binding family A member 1 (Homo sapiens, UniProt Q00975+Q02410); type: protein assay
# T4 sequence (Q00975 whole entry): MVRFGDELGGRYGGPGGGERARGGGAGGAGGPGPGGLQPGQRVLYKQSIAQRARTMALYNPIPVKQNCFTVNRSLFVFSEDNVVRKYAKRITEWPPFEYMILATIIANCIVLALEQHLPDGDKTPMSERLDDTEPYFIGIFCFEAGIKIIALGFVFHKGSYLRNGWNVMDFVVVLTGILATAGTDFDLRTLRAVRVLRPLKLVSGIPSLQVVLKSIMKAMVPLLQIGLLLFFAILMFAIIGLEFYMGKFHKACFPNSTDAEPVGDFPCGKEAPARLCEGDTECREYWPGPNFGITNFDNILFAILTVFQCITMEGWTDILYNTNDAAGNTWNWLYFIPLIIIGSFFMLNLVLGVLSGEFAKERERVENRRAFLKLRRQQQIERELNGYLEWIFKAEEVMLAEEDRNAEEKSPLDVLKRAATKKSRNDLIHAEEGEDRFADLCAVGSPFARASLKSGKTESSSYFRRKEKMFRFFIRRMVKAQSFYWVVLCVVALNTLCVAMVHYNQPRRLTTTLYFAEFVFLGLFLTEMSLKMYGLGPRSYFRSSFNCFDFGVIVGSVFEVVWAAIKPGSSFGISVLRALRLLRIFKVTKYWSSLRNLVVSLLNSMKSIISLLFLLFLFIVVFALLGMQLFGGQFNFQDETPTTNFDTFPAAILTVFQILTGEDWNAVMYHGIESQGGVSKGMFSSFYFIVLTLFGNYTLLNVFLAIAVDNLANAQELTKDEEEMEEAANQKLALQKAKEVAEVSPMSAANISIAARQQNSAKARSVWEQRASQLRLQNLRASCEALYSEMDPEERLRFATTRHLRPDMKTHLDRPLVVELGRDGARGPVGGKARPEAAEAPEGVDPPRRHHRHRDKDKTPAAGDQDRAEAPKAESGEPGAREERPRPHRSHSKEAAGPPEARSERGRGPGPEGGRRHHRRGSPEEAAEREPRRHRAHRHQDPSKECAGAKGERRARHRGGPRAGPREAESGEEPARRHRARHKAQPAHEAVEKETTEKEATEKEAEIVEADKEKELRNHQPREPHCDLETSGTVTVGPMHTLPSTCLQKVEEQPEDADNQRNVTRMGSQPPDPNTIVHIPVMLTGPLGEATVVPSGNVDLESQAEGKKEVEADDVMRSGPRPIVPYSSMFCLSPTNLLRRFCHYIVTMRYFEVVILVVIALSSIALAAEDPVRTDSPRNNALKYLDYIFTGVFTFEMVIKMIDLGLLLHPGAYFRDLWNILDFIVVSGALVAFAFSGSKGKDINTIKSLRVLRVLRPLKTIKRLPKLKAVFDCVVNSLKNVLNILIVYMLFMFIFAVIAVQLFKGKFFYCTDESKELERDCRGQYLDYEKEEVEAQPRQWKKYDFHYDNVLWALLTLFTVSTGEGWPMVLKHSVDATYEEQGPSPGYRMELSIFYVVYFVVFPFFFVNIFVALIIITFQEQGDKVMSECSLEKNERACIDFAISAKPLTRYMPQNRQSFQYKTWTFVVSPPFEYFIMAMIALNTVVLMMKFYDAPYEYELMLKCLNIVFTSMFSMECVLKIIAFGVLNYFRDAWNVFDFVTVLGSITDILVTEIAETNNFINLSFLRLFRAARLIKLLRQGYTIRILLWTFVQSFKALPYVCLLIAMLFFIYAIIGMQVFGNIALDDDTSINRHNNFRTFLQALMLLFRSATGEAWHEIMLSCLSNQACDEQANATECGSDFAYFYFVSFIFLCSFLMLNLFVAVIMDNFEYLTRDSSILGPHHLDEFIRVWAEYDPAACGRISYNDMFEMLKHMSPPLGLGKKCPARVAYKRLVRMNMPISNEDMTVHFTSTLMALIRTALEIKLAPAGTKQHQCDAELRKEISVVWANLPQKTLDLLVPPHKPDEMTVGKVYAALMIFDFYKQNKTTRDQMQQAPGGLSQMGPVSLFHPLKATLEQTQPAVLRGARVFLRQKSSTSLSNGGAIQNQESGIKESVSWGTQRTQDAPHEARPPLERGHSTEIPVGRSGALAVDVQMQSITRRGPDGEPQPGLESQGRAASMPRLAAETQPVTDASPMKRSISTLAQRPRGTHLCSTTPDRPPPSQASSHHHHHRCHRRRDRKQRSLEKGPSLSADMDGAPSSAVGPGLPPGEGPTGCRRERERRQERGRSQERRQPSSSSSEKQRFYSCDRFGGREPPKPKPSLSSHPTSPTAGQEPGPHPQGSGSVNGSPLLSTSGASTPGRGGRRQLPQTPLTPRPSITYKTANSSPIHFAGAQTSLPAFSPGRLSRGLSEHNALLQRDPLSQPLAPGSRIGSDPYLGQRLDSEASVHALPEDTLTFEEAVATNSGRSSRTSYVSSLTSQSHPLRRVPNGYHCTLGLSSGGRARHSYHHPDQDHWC
# T4 sequence (Q02410 whole entry): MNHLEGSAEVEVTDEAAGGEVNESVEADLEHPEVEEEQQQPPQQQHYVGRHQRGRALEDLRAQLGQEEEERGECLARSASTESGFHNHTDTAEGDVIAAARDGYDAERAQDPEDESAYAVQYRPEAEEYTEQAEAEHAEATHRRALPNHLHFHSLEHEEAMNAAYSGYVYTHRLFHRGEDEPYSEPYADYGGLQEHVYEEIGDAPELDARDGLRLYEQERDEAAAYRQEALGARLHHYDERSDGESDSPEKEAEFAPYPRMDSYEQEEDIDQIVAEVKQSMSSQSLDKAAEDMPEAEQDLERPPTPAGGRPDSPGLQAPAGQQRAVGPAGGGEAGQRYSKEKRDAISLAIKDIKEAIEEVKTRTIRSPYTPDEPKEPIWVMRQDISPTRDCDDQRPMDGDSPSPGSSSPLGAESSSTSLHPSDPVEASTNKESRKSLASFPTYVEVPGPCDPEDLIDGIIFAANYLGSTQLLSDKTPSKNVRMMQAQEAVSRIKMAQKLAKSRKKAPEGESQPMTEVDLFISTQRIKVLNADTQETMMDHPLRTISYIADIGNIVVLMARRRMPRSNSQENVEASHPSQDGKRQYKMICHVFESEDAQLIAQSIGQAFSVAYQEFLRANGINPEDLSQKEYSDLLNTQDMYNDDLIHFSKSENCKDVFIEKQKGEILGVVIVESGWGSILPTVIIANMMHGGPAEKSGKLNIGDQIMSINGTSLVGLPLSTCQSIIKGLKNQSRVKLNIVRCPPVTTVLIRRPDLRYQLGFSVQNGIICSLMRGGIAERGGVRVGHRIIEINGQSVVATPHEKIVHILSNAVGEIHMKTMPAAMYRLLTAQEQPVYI
# [5] = target: T4, Voltage-gated N-type calcium channel alpha-1B subunit/Amyloid beta A4 precursor protein-binding family A member 1; type: protein assay; remark: listed apart in the source
# Estrogen receptor beta = Estrogen receptor beta (Homo sapiens, UniProt Q92731); test: ERβ–SRC-3 coactivator interaction inhibitors, confirmation, orthogonal assay, biochemical, ELISA, streptavidin-HRP readout (AID 1060)
# Estrogen receptor beta, sequence (Q92731 whole entry): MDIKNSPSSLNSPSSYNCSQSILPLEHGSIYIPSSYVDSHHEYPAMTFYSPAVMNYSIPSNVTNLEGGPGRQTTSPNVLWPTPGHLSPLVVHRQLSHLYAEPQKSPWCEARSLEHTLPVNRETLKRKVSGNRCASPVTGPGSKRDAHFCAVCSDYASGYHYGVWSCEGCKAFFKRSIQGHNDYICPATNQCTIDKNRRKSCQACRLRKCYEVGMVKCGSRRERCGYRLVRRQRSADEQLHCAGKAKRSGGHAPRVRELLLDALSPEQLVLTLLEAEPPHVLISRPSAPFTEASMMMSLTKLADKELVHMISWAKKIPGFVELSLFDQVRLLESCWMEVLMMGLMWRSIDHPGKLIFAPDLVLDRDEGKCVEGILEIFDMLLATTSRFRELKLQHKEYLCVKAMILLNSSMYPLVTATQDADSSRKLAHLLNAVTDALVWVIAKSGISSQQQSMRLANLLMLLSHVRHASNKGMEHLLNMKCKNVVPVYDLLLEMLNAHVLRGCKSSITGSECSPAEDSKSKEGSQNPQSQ
# [6] = target: T4, Voltage-gated N-type calcium channel alpha-1B subunit/Amyloid beta A4 precursor protein-binding family A member 1; test: disruptors of Mint-PDZ/N-type channel peptide interaction – biochemical, HTRF, SAR follow-up (AID 2489); type: functional
# [7] = target: Glutathione-S-transferase (Schistosoma japonicum, UniProt Q26513); test: biotin-GST/anti-GST TR-FRET signal inhibitors, dose response, artefact control for Vif-APOBEC3G degradation inhibitor project, biochemical (AID 1117362); type: functional
# Glutathione-S-transferase, sequence (Q26513 whole entry): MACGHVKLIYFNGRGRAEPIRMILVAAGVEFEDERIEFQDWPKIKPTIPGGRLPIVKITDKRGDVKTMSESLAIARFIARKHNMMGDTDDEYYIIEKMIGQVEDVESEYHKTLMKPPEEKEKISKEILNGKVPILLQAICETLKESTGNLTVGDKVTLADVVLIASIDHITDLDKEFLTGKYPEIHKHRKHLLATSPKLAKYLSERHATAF
# [8] = inhibitors of firefly luciferase expression or activity, dose response, H4 neuroglioma cells, luminescence (AID 1990); type: functional, cell-based
# [9] = luciferase reporter signal reduction – luminescence, H4-C neuroglioblastoma cells, dose response (AID 2458); type: functional, cell-based;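 also: H4 neuroglioblastoma cells stably carrying a luciferase reporter gene fusion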
# cells = type: functional, cell-based
# [10] = Luminescence Cell-Based Dose Response HTS to Identify Inhibitors of 5'UTR Stem-Loop Driven Prion Protein mRNA Translation in H4 Neuroglioblastoma Cells. [Related pubchem assays: 1827 (Project Summary), 1813 (Primary HTS)]; type: functional
# [11] = inhibitors of SNCA 5'UTR-driven reporter translation, confirmation, H4 neuroglioma cells, luminescence (AID 1988); type: functional, cell-based
# [12] = inhibitors of SNCA 5'UTR-driven translation, confirmation, luminescence, H4 neuroglioblastoma cells, dose confirmation (AID 2454); type: functional, cell-based;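 also: H4 neuroglioblastoma cells carrying an alpha-synuclein 5'UTR luciferase reporter; potency for inhibition of the luciferase signal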
# [13] = target: T1, Eukaryotic translation initiation factor 4H; test: human eIF4H binding inhibitors, primary screen, translation initiation inhibitor project, biochemical, uHTS, fluorescence polarization (AID 2012)
# [14] = target: T2, Polyadenylate-binding protein 1; test: PABP poly(A) RNA binding inhibitors, primary screen, biochemical, fluorescence polarization, uHTS (AID 2014)
# [15] = target: DNA dC->dU-editing enzyme APOBEC-3A (Homo sapiens, UniProt P31941); test: Dose Response confirmation of small molecule APOBEC3A DNA Deaminase Inhibitors via a fluorescence-based single-stranded DNA deaminase assay. [Related pubchem assays (depositor defined):AID493011, AID493024]; type: functional
# DNA dC->dU-editing enzyme APOBEC-3A, sequence (P31941 whole entry): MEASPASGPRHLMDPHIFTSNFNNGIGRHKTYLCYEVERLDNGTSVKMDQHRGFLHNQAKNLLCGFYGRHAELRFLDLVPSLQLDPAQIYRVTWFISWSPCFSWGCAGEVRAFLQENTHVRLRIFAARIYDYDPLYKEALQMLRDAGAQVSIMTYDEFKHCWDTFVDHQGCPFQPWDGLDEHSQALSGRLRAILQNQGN
# [16] = target: DNA dC->dU-editing enzyme APOBEC-3G (Homo sapiens, UniProt Q9HC16); type: functional;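 also: Dose-response counterscreen measuring inhibition of APOBEC3G DNA deaminase activity, run while confirming APOBEC3A inhibitors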
# [17] = target: T5, Carboxy-terminal domain RNA polymerase II polypeptide A small phosphatase 1 (Homo sapiens, UniProt Q9GZU7); test: inhibitors of CTDSP1, concentration-response testing, biochemical assay, absorbance-based, actives from ultra-high-throughput screening (AID 540297); type: functional
# T5 sequence (Q9GZU7 whole entry): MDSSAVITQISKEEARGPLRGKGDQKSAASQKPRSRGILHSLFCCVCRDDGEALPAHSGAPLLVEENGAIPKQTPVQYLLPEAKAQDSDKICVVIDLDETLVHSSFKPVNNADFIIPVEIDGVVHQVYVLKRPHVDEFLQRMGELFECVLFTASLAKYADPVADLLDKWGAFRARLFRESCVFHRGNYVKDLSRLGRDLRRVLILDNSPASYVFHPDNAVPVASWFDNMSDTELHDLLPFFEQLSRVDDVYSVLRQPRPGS
# [18] = target: T6, Mannose-6-phosphate isomerase (Homo sapiens, UniProt P34949); test: inhibitors of human PMI, primary screen, biochemical, fluorescence intensity, coupled assay (AID 1209)
# T6 sequence (P34949 whole entry): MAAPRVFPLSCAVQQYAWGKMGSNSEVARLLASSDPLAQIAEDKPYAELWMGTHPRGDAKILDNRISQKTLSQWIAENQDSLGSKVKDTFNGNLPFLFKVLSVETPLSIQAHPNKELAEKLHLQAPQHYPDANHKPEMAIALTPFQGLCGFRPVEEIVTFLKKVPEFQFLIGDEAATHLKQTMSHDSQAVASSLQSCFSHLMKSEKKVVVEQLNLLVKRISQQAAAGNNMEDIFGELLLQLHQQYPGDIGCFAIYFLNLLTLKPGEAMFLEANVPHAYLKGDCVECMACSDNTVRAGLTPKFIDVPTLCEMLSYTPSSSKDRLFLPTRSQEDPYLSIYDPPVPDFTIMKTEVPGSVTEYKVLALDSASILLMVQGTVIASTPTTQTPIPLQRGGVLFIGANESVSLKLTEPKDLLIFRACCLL
# [19] = target: T7, Heat shock factor protein 1 (Mus musculus, UniProt P38532); test: HSF1 potentiators in luciferase reporter cells, confirmation, cell-based, NIH3T3, luminescence, dose retest (AID 435004); type: functional;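 also: stress induced by proteasome inhibitor MG132 added 30 min after compound; luciferase reporter driven by HSF1 response element in NIH3T3 cells; actives raise luminescence as potentiators of the MG132 stress response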
# T7 sequence (P38532 whole entry): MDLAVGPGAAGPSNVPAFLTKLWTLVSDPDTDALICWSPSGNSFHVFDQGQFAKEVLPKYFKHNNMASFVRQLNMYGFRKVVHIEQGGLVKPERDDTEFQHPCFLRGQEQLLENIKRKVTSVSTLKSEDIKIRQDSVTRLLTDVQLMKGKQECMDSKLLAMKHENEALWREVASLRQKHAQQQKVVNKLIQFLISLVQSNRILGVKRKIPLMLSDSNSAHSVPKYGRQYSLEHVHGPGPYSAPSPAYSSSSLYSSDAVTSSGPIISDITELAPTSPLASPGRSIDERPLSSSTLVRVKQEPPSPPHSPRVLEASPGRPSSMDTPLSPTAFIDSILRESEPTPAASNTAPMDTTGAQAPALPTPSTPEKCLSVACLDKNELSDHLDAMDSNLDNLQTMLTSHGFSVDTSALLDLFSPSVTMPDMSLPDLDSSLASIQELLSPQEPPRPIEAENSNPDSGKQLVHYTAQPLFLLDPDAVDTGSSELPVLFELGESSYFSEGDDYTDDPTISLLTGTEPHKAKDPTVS
structure (smiles),measurement,setting,value
CCOC(=O)c1c(C)n(-c2ccccc2)c2ccc(OCCN(C)C)cc12,CC50,[1],> 40 µM (active)
COc1ccc(NC(=O)CSc2ccc(-c3ccco3)nn2)c(OC)c1,IC50,[2],86.5 µM (active)
same,IC50,[3],> 100 µM (inactive)
same,IC50,Hexokinase HKDC1,5.8 µM (active)
O=C(c1ccc2nc(-c3ccco3)c(-c3ccco3)nc2c1)N1CCC2(CC1)OCCO2,IC50,[4],2.45 µM (active)
same,IC50,[5],1.39 µM (active)
same,IC50,Estrogen receptor beta,8.97 µM (not active)
same,IC50,[6],> 56.8 µM (inactive)
same,IC50,[7],> 100 µM (active)
CCOC(=O)c1sc2nc(-c3ccco3)c3c(c2c1N)CC(C)(C)OC3,IC50,[4],9.58 µM (active)
same,IC50,[5],5.26 µM (active)
same,IC50,[6],> 56.8 µM (inactive)
C=CCn1c(SCc2ccc(Cl)cc2)nc2c1c(=O)[nH]c(=O)n2C,EC50,[8],29.3 µM (active)
same,EC50,[9],> 12 µM (not active)
same,EC50,cells,> 12 µM (not active)
same,EC50,[10],< 0.1 µM (active)
same,EC50,[11],> 120 µM (not active)
same,EC50,[12],> 12 µM (not active)
COc1ccc(C(CC(=O)N2CCCCC2)c2c(OC)cc(OC)c3c(-c4ccccc4)cc(=O)oc23)cc1 (stereo not given),IC50,[13],7.25 µM (active)
same,IC50,[14],33.4 µM (active)
same,IC50,[15],10.4 µM (active)
same,IC50,[16],25.9 µM (active)
same,IC50,[17],4.7 µM (active)
Cc1ccc2cccnc2c1NC(=S)NC(=O)c1ccccc1,IC50,[18],> 50 µM (not active)
same,EC50,[19],> 260 µM (inactive)
